{
  "source": "patent US4950686A",
  "about": "“Anti-mycoplasma agent” (Shionogi & Co., Ltd., priority 1986, dated 1990)",
  "key": {"[1]": {"tested_on": "Mycoplasma hyopneumoniae ST-11 (standard strain)", "assay": "Anti-mycoplasma activity in vitro (MIC, broth dilution), strain ST-11", "assay_type": "cell-based", "details": "Mh ST-11", "procedure": "(§1) (1) Anti-mycoplasma activity test in vitro\n(§2) MIC values of each of Tropolones were measured on the following strains according to the following method.\n(b) Mycoplasma hyopneumoniae\nStrain: ST-11 (standard strain)\nMedium: 850 ml of Hanks' solution supplemented with 0.5% lactoalbumin, 50 ml of 25% yeast, 100 ml of equine serum and 4-6 ml of 0.5% phenol red (pH 7.4-7.6)\n(§3) Method: Broth dilution method\nInoculum: Culture which is incubated for 3-4 days and diluted 10 times with the broth if color of the broth becomes yellow then. If it needs over 4 days until color of the broth becomes yellow, it is further subcultured. This is diluted 10 times with the broth to give inoculum.\nAssay is done in the same manner as in the above (a)."}, "[2]": {"tested_on": "Mycoplasma gallisepticum T-7-T (wild strain, tylosin-resistant)", "assay": "Anti-mycoplasma activity in vitro (MIC, broth dilution), strain T-7-T", "assay_type": "cell-based", "details": "Mg T-7-T, 37° C., 7 days", "procedure": "as §1, §2\n(§4) (a) Mycoplasma gallisepticum\nT-7-T (wild strain, tylosin-resistant)\n(§5) Medium: Chick PPLO broth supplemented with 20% equine serum (Eiken Kagaku Co., Ltd.)\nas §3\n(§6) Inoculum: Culture incubated at 37° C. for 24-48 hr which is diluted with broth to 10^6 CCU/ml immediately before the use.\n(§7) To 1.6 ml of the broth is added 0.2 ml of an agent which has been subjected to 2-fold dilution and then added 0.2 ml of inoculum, which is incubated at 37° C. for 7 days."}, "[3]": {"tested_on": "Mycoplasma gallisepticum S6 (standard strain)", "assay": "Anti-mycoplasma activity in vitro (MIC, broth dilution), strain S6", "assay_type": "cell-based", "details": "Mg S6, 37° C., 7 days", "procedure": "as §1, §2, §4, §5, §3, §6, §7"}, "[4]": {"tested_on": "Mycoplasma gallisepticum MR-1 (wild strain, tylosin-resistant)", "assay": "Anti-mycoplasma activity in vitro (MIC, broth dilution), strain MR-1", "assay_type": "cell-based", "details": "Mg MR-1, 37° C., 7 days", "procedure": "as §1, §2, §4\nMR-1 (wild strain, tylosin-resistant)\nas §5, §3, §6, §7"}, "[5]": {"tested_on": "Mycoplasma gallisepticum S6 (standard strain)", "assay": "Mycoplasma gallisepticum air-sac infection method in chicken, strain S6", "assay_type": "in vivo, Mycoplasma gallisepticum; SPF chicken (white leghorn)", "details": "200 mg/kg × once oral, 20 mg/ml sol. c; for Index of Isolation: inoculum 6.3 × 10^4, trachea ND, range 0-6.0", "procedure": "(2) Test of Effectiveness Mycoplasma gallisepticum air-sac infection method\nInoculation: To the right air-sac of 9 days old SPF chicken (a white leghorn) which has abstained from water and feed one day before is inoculated 0.20-0.25 ml/chicken of fresh mycoplasma culture incubated for 24-48 hr and diluted with broth (usually 100 times). The concentration in Table 2 is shown in a unit of mg/ml.\nMedium: Chick PPLO broth supplemented with 15% equine serum (Eiken Kagaku Co., Ltd.)\nAdministration: A compound of this invention dissolved or suspended in the following solution is orally and forcibly administered once by a cannula immediately after the infection.\nAnatomization and Isolation of Microorganism: The chickens are anatomized 5 days after the infection, and the right and left air sacs are investigated whether they are attacked with a disease or not. The change caused by the disease is represented in four degrees; -: no change, +: slight, ++: medium and +++: serious. Microorganism is isolated from the right and left air-sacs and the trachea by using a sterilized applicator.\nJudgement: Judgement is done through an index of an air-sac disease and an index of a microorganism-isolation.\nIndex of an air-sac-disease: First, indexes in the right and left air-sacs are separately calculated according to the following formula;\n{degree of disease (0-3)×chickens}/anatomized chickens\nand the index is calculated by the following formula;\n(index of right air-sac)×1+(index of left air-sac)×2\nIndex of a microorganism isolation:\nP: chickens from the right air-sac of which microorganism is isolated,\nQ: chickens from the trachea of which microorganism is isolated,\nR: chickens from the left air-sac of which microorganism is isolated, and\nS: chickens investigated."}, "[6]": {"details": "inoculum 6.3 × 10^4, calcium salt"}, "[7]": {"details": "Mycoplasmoides gallisepticum, 168 h, read-out: MIC"}},
  "note": "Where a name gives a salt, the structure may show the parent alone. Read-outs that look alike come from different tables or passages of the source.",
  "data": [
    {"smiles": "O=c1cccccc1O.O=c1cccccc1O.[Cu]", "note": "[Compound 2, Tropolone copper complex]", "values": [
      {"measurement": "MIC", "setting": "[1]", "result": 0.78, "unit": "µg/mL"},
      {"measurement": "MIC", "setting": "[2]", "result": 3.13, "unit": "µg/mL"},
      {"measurement": "MIC", "setting": "[3]", "result": 3.13, "unit": "µg/mL"},
      {"measurement": "MIC", "setting": "[4]", "result": 3.13, "unit": "µg/mL"}
    ]},
    {"smiles": "O=c1cccccc1[O-].O=c1cccccc1[O-].[Ni+2]", "note": "[Compound 4, Tropolone nickel complex]", "values": [
      {"measurement": "MIC", "setting": "[1]", "result": 0.78, "unit": "µg/mL"},
      {"measurement": "MIC", "setting": "[2]", "result": 3.13, "unit": "µg/mL"},
      {"measurement": "MIC", "setting": "[3]", "result": 1.56, "unit": "µg/mL"},
      {"measurement": "MIC", "setting": "[4]", "result": 3.13, "unit": "µg/mL"}
    ]},
    {"smiles": "O=c1cccccc1O", "note": "[Compound 5, Tropolone calcium salt]", "values": [
      {"measurement": "Change of air-sac, left: + (chickens)", "setting": "[5]; inoculum 6.3 × 10^4", "result": 0},
      {"measurement": "Change of air-sac, left: ++ (chickens)", "setting": "[5]; inoculum 6.3 × 10^4", "result": 0},
      {"measurement": "Change of air-sac, left: +++ (chickens)", "setting": "[5]; inoculum 6.3 × 10^4", "result": 0},
      {"measurement": "Change of air-sac, left: - (chickens)", "setting": "[5]; inoculum 6.3 × 10^4", "result": 5},
      {"measurement": "Change of air-sac, right: ++ (chickens)", "setting": "[5]; inoculum 6.3 × 10^4", "result": 0},
      {"measurement": "Change of air-sac, right: +++ (chickens)", "setting": "[5]; inoculum 6.3 × 10^4", "result": 0},
      {"measurement": "Isolation, L (left air-sac)", "setting": "[5]; inoculum 6.3 × 10^4", "result": 0},
      {"measurement": "Isolation, R (right air-sac)", "setting": "[5]; inoculum 6.3 × 10^4", "result": 1},
      {"measurement": "Mycoplasma Isolated Chickens", "setting": "[5]; inoculum 6.3 × 10^4", "result": 1},
      {"measurement": "Change of air-sac, right: + (chickens)", "setting": "[5]; [6]", "result": 0},
      {"measurement": "Change of air-sac, right: - (chickens)", "setting": "[5]; [6]", "result": 5},
      {"measurement": "Index of Disease", "setting": "[5]; inoculum 6.3 × 10^4, range 0-9.0, calcium salt", "result": 0},
      {"measurement": "Index of Isolation", "setting": "[5]", "result": 0.2},
      {"measurement": "MIC", "setting": "[3]; calcium salt", "result": 3.13, "unit": "µg/mL"},
      {"measurement": "MIC", "setting": "[4]; calcium salt", "result": 1.56, "unit": "µg/mL"}
    ]},
    {"smiles": "O=c1cccccc1O", "note": "[Compound 6, Tropolone magnesium salt]", "values": [
      {"measurement": "MIC", "setting": "[1]", "result": 0.78, "unit": "µg/mL"},
      {"measurement": "MIC", "setting": "[2]", "result": 1.56, "unit": "µg/mL"},
      {"measurement": "MIC", "setting": "[3]", "result": 1.56, "unit": "µg/mL"},
      {"measurement": "MIC", "setting": "[4]", "result": 1.56, "unit": "µg/mL"}
    ]},
    {"smiles": "O=c1cccccc1O", "note": "[Compound 8, Tropolone sodium salt]", "values": [
      {"measurement": "MIC", "setting": "[1]; sodium salt", "result": 0.78, "unit": "µg/mL"},
      {"measurement": "MIC", "setting": "[2]; sodium salt", "result": 1.56, "unit": "µg/mL"},
      {"measurement": "MIC", "setting": "[3]; sodium salt", "result": 1.56, "unit": "µg/mL"},
      {"measurement": "MIC", "setting": "[4]; sodium salt", "result": 1.56, "unit": "µg/mL"}
    ]},
    {"smiles": "O=c1cccccc1O", "note": "[Compound 9, Tropolone ethanolamine salt]", "values": [
      {"measurement": "Change of air-sac, left: + (chickens)", "setting": "[5]; inoculum 6.3 × 10^4", "result": 0},
      {"measurement": "Change of air-sac, left: ++ (chickens)", "setting": "[5]; inoculum 6.3 × 10^4", "result": 0},
      {"measurement": "Change of air-sac, left: +++ (chickens)", "setting": "[5]; inoculum 6.3 × 10^4", "result": 0},
      {"measurement": "Change of air-sac, left: - (chickens)", "setting": "[5]; inoculum 6.3 × 10^4", "result": 5},
      {"measurement": "Change of air-sac, right: + (chickens)", "setting": "[5]; inoculum 6.3 × 10^4", "result": 1},
      {"measurement": "Change of air-sac, right: ++ (chickens)", "setting": "[5]; inoculum 6.3 × 10^4", "result": 0},
      {"measurement": "Change of air-sac, right: +++ (chickens)", "setting": "[5]; inoculum 6.3 × 10^4", "result": 0},
      {"measurement": "Change of air-sac, right: - (chickens)", "setting": "[5]; inoculum 6.3 × 10^4", "result": 4},
      {"measurement": "Isolation, L (left air-sac)", "setting": "[5]; inoculum 6.3 × 10^4", "result": 0},
      {"measurement": "Isolation, R (right air-sac)", "setting": "[5]; inoculum 6.3 × 10^4", "result": 1},
      {"measurement": "Mycoplasma Isolated Chickens", "setting": "[5]; inoculum 6.3 × 10^4", "result": 1},
      {"measurement": "Index of Disease", "setting": "[5]; inoculum 6.3 × 10^4, range 0-9.0", "result": 0.2},
      {"measurement": "Index of Isolation", "setting": "[5]", "result": 0.2},
      {"measurement": "MIC", "setting": "[3]", "result": 3.13, "unit": "µg/mL"},
      {"measurement": "MIC", "setting": "[4]", "result": 3.13, "unit": "µg/mL"}
    ]},
    {"smiles": "O=c1cccccc1O", "note": "[Compound 10, Tropolone n-propylamine salt]", "values": [
      {"measurement": "MIC", "setting": "[1]", "result": 0.78, "unit": "µg/mL"},
      {"measurement": "MIC", "setting": "[2]", "result": 3.13, "unit": "µg/mL"},
      {"measurement": "MIC", "setting": "[3]", "result": 3.13, "unit": "µg/mL"},
      {"measurement": "MIC", "setting": "[4]", "result": 3.13, "unit": "µg/mL"}
    ]},
    {"smiles": "O=C(Oc1cccccc1=O)c1ccccc1", "note": "[Compound 14, O-Benzoyltropolone]", "values": [
      {"measurement": "MIC", "setting": "[1]; Mesomycoplasma hyopneumoniae, read-out: MIC", "result": 0.78, "unit": "µg/mL"},
      {"measurement": "MIC", "setting": "[2]; [7]", "result": 6.25, "unit": "µg/mL"},
      {"measurement": "MIC", "setting": "[3]; [7]", "result": 6.25, "unit": "µg/mL"},
      {"measurement": "MIC", "setting": "[4]; [7]", "result": 6.25, "unit": "µg/mL"}
    ]}
  ]
}
